Measured values as given in PubChem BioAssay (NCI).
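Cultured in 96-well plates, cells were exposed to test compound for 48 hours across five concentrations. GI50 = concentration required for 50% inhibition of growth. Definition used: TGI = concentration required for complete inhibition of growth.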

Legend:
Assay in all cases: NCI-60 cell line screen, 48 h
ACHN renal = tested on: ACHN renal
HT29 colon = tested on: HT29 colon
KM12 colon = tested on: KM12 colon
MOLT-4 leukemia = tested on: MOLT-4 leukemia
PC-3 prostate = tested on: PC-3 prostate
SF-268 CNS = tested on: SF-268 CNS
SNB-19 CNS = tested on: SNB-19 CNS
SR leukemia = tested on: SR leukemia
OVCAR-3 ovarian = tested on: OVCAR-3 ovarian
SK-MEL-2 melanoma = tested on: SK-MEL-2 melanoma

SMILES	GI50 (ACHN renal)	TGI (ACHN renal)	GI50 (HT29 colon)	TGI (HT29 colon)	GI50 (KM12 colon)	TGI (KM12 colon)	GI50 (MOLT-4 leukemia)	TGI (MOLT-4 leukemia)	GI50 (PC-3 prostate)	TGI (PC-3 prostate)	GI50 (SF-268 CNS)	TGI (SF-268 CNS)	GI50 (SNB-19 CNS)	TGI (SNB-19 CNS)	GI50 (SR leukemia)	TGI (SR leukemia)	GI50 (OVCAR-3 ovarian)	TGI (OVCAR-3 ovarian)	GI50 (SK-MEL-2 melanoma)	TGI (SK-MEL-2 melanoma)
C=CC[n+]1c(/C=C2\Sc3ccccc3N2C)sc(-c2ccccc2)c1-c1ccccc1	1.7 µM	10.2 µM	0.306 µM	6.1 µM	0.331 µM	1.95 µM	0.431 µM	4.29 µM	0.264 µM	1.34 µM	0.405 µM	15.6 µM	0.375 µM	15.1 µM	0.353 µM	1.87 µM				
COC(=O)C1=C(O)C(C(=O)OC)[C@@]2(O)[C@@H](C(=O)OC)C(c3ccccc3C(F)(F)F)C[C@@H]1[C@@H]2C(=O)OC (some centres undefined)	1.61 µM	3.05 µM	0.228 µM	5.3 µM	16.9 µM	32.8 µM	1.88 µM	6.97 µM	6.02 µM	24.7 µM	12.2 µM	30.3 µM	1.81 µM	13.6 µM	2.82 µM	62.4 µM	1.69 µM	4.14 µM	19.7 µM	36.4 µM
O=C(NCCc1ccccc1)C(c1csc2ccccc12)N(C(=O)CCl)c1ccc(-c2cnco2)cc1 (centres undefined)	0.139 µM	0.537 µM	0.257 µM	1.06 µM	0.291 µM	0.898 µM	0.209 µM	0.678 µM	0.511 µM	1.9 µM	0.362 µM	0.958 µM	1.7 µM	3.16 µM	0.0268 µM	0.107 µM	0.156 µM	0.828 µM	1.64 µM	3.12 µM
O=C(CCCCCn1c2ccccc2c2c3c(c4c5ccccc5[nH]c4c21)C(=O)N(O)C3=O)N1CCOCC1			2.42 µM	5.88 µM	2.14 µM	5.03 µM	1.88 µM	5.36 µM	2.28 µM	6.22 µM			3.05 µM	36.8 µM	1.12 µM	5.45 µM			2.4 µM	5.47 µM
CC(C)n1c2c(c3ccccc3c1=O)C(=O)c1ccccc1-2				> 100 µM		> 100 µM		> 100 µM		> 100 µM		> 100 µM		> 100 µM		> 100 µM		> 100 µM		> 100 µM
Cc1c(Br)cccc1NC(=O)c1sc2nc3c(cc2c1N)CN(Cc1ccccc1)CC3	0.444 µM	40 µM	0.179 µM	5.25 µM	0.168 µM	10.2 µM	0.409 µM	> 50 µM	0.204 µM	22.4 µM	0.525 µM	27.2 µM	0.448 µM	> 50 µM	0.107 µM	> 50 µM	0.157 µM	0.773 µM	0.231 µM	15.1 µM
CCCCCCCC(=O)SCC/C=C/[C@@H]1CC(=O)NCc2cccc(n2)CN(Cc2ccc(Cl)cc2)CC(=O)N[C@@H](C(C)C)C(=O)O1	6.44 µM	49.8 µM	4.3 µM	> 100 µM	9.4 µM	65.1 µM	3.21 µM	> 100 µM	15.9 µM	> 100 µM	20 µM	> 100 µM	22.6 µM	> 100 µM	3.64 µM	> 100 µM	13.1 µM	49.4 µM	13.3 µM	> 100 µM
